According to ChEMBL document CHEMBL4257449, “New N-(2-phenyl-4-oxo-1,3-thiazolidin-3-yl)-1,2-benzothiazole-3-carboxamides and acetamides as antimicrobial agents” (2017):
Values after ≈ are worked out from the molar mass of the structure shown.

How the values were obtained:
Aspergillus fumigatus [1] = test: Fungicidal activity against Aspergillus fumigatus incubated for 72 hrs followed by serial sub-cultivation for 72 hrs and measured after 72 hrs by serial dilution method; type: functional
Penicillium ochrochloron [2] = test: Antifungal activity against Penicillium ochrochloron ATCC 9112 after 72 hrs by serial dilution method; type: functional; conditions: ATCC 9112, 72 h
Enterobacter cloacae [3] = test: Antibacterial activity against Enterobacter cloacae after 24 hrs by microdilution method; type: functional
Enterobacter cloacae [4] = test: Bactericidal activity against Enterobacter cloacae incubated for 24 hrs followed by serial sub-cultivation and measured after 24 hrs by microdilution method; type: functional
Salmonella typhimurium [5] = test: Bactericidal activity against Salmonella typhimurium ATCC 13311 incubated for 24 hrs followed by serial sub-cultivation and measured after 24 hrs by microdilution method; type: functional, Salmonella enterica subsp. enterica serovar Typhimurium
Aspergillus ochraceus [6] = test: Antifungal activity against Aspergillus ochraceus ATCC 12066 after 72 hrs by serial dilution method; type: functional; conditions: ATCC 12066, 72 h
Penicillium ochrochloron [7] = test: Fungicidal activity against Penicillium ochrochloron ATCC 9112 incubated for 72 hrs followed by serial sub-cultivation for 72 hrs and measured after 72 hrs by serial dilution method; type: functional
Micrococcus flavus [8] = test: Bactericidal activity against Micrococcus flavus ATCC 10240 incubated for 24 hrs followed by serial sub-cultivation and measured after 24 hrs by microdilution method; type: functional
Staphylococcus aureus [9] = test: Antibacterial activity against Staphylococcus aureus ATCC 6538 after 24 hrs by microdilution method; type: functional; conditions: ATCC 6538, 24 h
Aspergillus versicolor [10] = test: Fungicidal activity against Aspergillus versicolor ATCC 11730 incubated for 72 hrs followed by serial sub-cultivation for 72 hrs and measured after 72 hrs by serial dilution method; type: functional
Staphylococcus aureus [11] = test: Bactericidal activity against Staphylococcus aureus ATCC 6538 incubated for 24 hrs followed by serial sub-cultivation and measured after 24 hrs by microdilution method; type: functional
Bacillus cereus [12] = test: Bactericidal activity against Bacillus cereus incubated for 24 hrs followed by serial sub-cultivation and measured after 24 hrs by microdilution method; type: functional
Salmonella typhimurium [13] = test: Antibacterial activity against Salmonella typhimurium ATCC 13311 after 24 hrs by microdilution method; type: functional, Salmonella enterica subsp. enterica serovar Typhimurium; conditions: Salmonella enterica, ATCC 13311, 24 h
Aspergillus niger [14] = test: Fungicidal activity against Aspergillus niger ATCC 6275 incubated for 72 hrs followed by serial sub-cultivation for 72 hrs and measured after 72 hrs by serial dilution method; type: functional
Listeria monocytogenes [15] = test: Bactericidal activity against Listeria monocytogenes NCTC 7973 incubated for 24 hrs followed by serial sub-cultivation and measured after 24 hrs by microdilution method; type: functional
Trichoderma viride [16] = test: Antifungal activity against Trichoderma viride IAM 5061 after 72 hrs by serial dilution method; type: functional; conditions: IAM 5061, 72 h
Aspergillus niger [17] = test: Antifungal activity against Aspergillus niger ATCC 6275 after 72 hrs by serial dilution method; type: functional; conditions: ATCC 6275, 72 h
Listeria monocytogenes [18] = test: Antibacterial activity against Listeria monocytogenes NCTC 7973 after 24 hrs by microdilution method; type: functional; conditions: NCTC 7973, 24 h
Pseudomonas aeruginosa [19] = test: Bactericidal activity against Pseudomonas aeruginosa ATCC 27853 incubated for 24 hrs followed by serial sub-cultivation and measured after 24 hrs by microdilution method; type: functional
Escherichia coli [20] = test: Antibacterial activity against Escherichia coli ATCC 35210 after 24 hrs by microdilution method; type: functional; conditions: ATCC 35210, 24 h
Talaromyces funiculosus [21] = test: Antifungal activity against Penicillium funiculosum ATCC 36839 after 72 hrs by serial dilution method; type: functional; conditions: ATCC 36839, 72 h
Micrococcus flavus [22] = test: Antibacterial activity against Micrococcus flavus ATCC 10240 after 24 hrs by microdilution method; type: functional; conditions: ATCC 10240, 24 h
Aspergillus ochraceus [23] = test: Fungicidal activity against Aspergillus ochraceus ATCC 12066 incubated for 72 hrs followed by serial sub-cultivation for 72 hrs and measured after 72 hrs by serial dilution method; type: functional
Pseudomonas aeruginosa [24] = test: Antibacterial activity against Pseudomonas aeruginosa ATCC 27853 after 24 hrs by microdilution method; type: functional; conditions: ATCC 27853, 24 h
Aspergillus fumigatus [25] = test: Antifungal activity against Aspergillus fumigatus after 72 hrs by serial dilution method; type: functional
Escherichia coli [26] = test: Bactericidal activity against Escherichia coli ATCC 35210 incubated for 24 hrs followed by serial sub-cultivation and measured after 24 hrs by microdilution method; type: functional
Trichoderma viride [27] = test: Fungicidal activity against Trichoderma viride IAM 5061 incubated for 72 hrs followed by serial sub-cultivation for 72 hrs and measured after 72 hrs by serial dilution method; type: functional
Candida albicans [28] = test: Antifungal activity against Candida albicans after 72 hrs by serial dilution method; type: functional
Aspergillus versicolor [29] = test: Antifungal activity against Aspergillus versicolor ATCC 11730 after 72 hrs by serial dilution method; type: functional; conditions: ATCC 11730, 72 h
Talaromyces funiculosus [30] = test: Fungicidal activity against Penicillium funiculosum ATCC 36839 incubated for 72 hrs followed by serial sub-cultivation for 72 hrs and measured after 72 hrs by serial dilution method; type: functional
Bacillus cereus [31] = test: Antibacterial activity against Bacillus cereus after 24 hrs by microdilution method; type: functional
Candida albicans [32] = test: Fungicidal activity against Candida albicans incubated for 72 hrs followed by serial sub-cultivation for 72 hrs and measured after 72 hrs by serial dilution method; type: functional

O=C(N/N=C/c1c(Cl)cccc1Cl)c1nsc2ccccc12
MFC99.5 (Aspergillus fumigatus [1]): 46.4 ×10⁻² umol/ml | MIC (Penicillium ochrochloron [2]): 232 µM (≈ 81.3 µg/mL) | MIC (Enterobacter cloacae [3]): 116 µM (≈ 40.6 µg/mL) | MBC99.5 (Enterobacter cloacae [4]): 23.2 ×10⁻² umol/ml | MBC99.5 (Salmonella typhimurium [5]): 23.2 ×10⁻² umol/ml | MIC (Aspergillus ochraceus [6]): 232 µM (≈ 81.3 µg/mL) | MFC99.5 (Penicillium ochrochloron [7]): 46.4 ×10⁻² umol/ml | MBC99.5 (Micrococcus flavus [8]): 23.2 ×10⁻² umol/ml | MIC (Staphylococcus aureus [9]): 58 µM (≈ 20.3 µg/mL) | MFC99.5 (Aspergillus versicolor [10]): 58 ×10⁻² umol/ml | MBC99.5 (Staphylococcus aureus [11]): 17.6 ×10⁻² umol/ml | MBC99.5 (Bacillus cereus [12]): 23.2 ×10⁻² umol/ml | MIC (Salmonella typhimurium [13]): 116 µM (≈ 40.6 µg/mL) | MFC99.5 (Aspergillus niger [14]): 58 ×10⁻² umol/ml | MBC99.5 (Listeria monocytogenes [15]): 46.4 ×10⁻² umol/ml | MIC (Trichoderma viride [16]): 116 µM (≈ 40.6 µg/mL) | MIC (Aspergillus niger [17]): 464 µM (≈ 163 µg/mL) | MIC (Listeria monocytogenes [18]): 232 µM (≈ 81.3 µg/mL) | MBC99.5 (Pseudomonas aeruginosa [19]): 46.4 ×10⁻² umol/ml | MIC (Escherichia coli [20]): 116 µM (≈ 40.6 µg/mL) | MIC (Talaromyces funiculosus [21]): 464 µM (≈ 163 µg/mL) | MIC (Micrococcus flavus [22]): 116 µM (≈ 40.6 µg/mL) | MFC99.5 (Aspergillus ochraceus [23]): 46.4 ×10⁻² umol/ml | MIC (Pseudomonas aeruginosa [24]): 232 µM (≈ 81.3 µg/mL) | MIC (Aspergillus fumigatus [25]): 232 µM (≈ 81.3 µg/mL) | MBC99.5 (Escherichia coli [26]): 23.2 ×10⁻² umol/ml | MFC99.5 (Trichoderma viride [27]): 46.4 ×10⁻² umol/ml | MIC (Candida albicans [28]): 232 µM (≈ 81.3 µg/mL) | MIC (Aspergillus versicolor [29]): 464 µM (≈ 163 µg/mL) | MFC99.5 (Talaromyces funiculosus [30]): 58 ×10⁻² umol/ml | MIC (Bacillus cereus [31]): 116 µM (≈ 40.6 µg/mL) | MFC99.5 (Candida albicans [32]): 46.4 ×10⁻² umol/ml

O=C(N/N=C/c1c(F)cccc1F)c1nsc2ccccc12
MFC99.5 (Aspergillus fumigatus [1]): 25.2 ×10⁻² umol/ml | MIC (Penicillium ochrochloron [2]): 126 µM (≈ 40 µg/mL) | MIC (Enterobacter cloacae [3]): 63 µM (≈ 20 µg/mL) | MBC99.5 (Enterobacter cloacae [4]): 25.2 ×10⁻² umol/ml | MBC99.5 (Salmonella typhimurium [5]): 6.3 ×10⁻² umol/ml | MIC (Aspergillus ochraceus [6]): 15.8 µM (≈ 5.01 µg/mL) | MFC99.5 (Penicillium ochrochloron [7]): 25.2 ×10⁻² umol/ml | MBC99.5 (Micrococcus flavus [8]): 50.4 ×10⁻² umol/ml | MIC (Staphylococcus aureus [9]): 126 µM (≈ 40 µg/mL) | MFC99.5 (Aspergillus versicolor [10]): 12.6 ×10⁻² umol/ml | MBC99.5 (Staphylococcus aureus [11]): 25.2 ×10⁻² umol/ml | MBC99.5 (Bacillus cereus [12]): 25.2 ×10⁻² umol/ml | MIC (Salmonella typhimurium [13]): 31.5 µM (≈ 10 µg/mL) | MFC99.5 (Aspergillus niger [14]): 50.4 ×10⁻² umol/ml | MBC99.5 (Listeria monocytogenes [15]): 50.4 ×10⁻² umol/ml | MIC (Trichoderma viride [16]): 126 µM (≈ 40 µg/mL) | MIC (Aspergillus niger [17]): 252 µM (≈ 80 µg/mL) | MIC (Listeria monocytogenes [18]): 252 µM (≈ 80 µg/mL) | MBC99.5 (Pseudomonas aeruginosa [19]): 50.4 ×10⁻² umol/ml | MIC (Escherichia coli [20]): 252 µM (≈ 80 µg/mL) | MIC (Talaromyces funiculosus [21]): 31.5 µM (≈ 10 µg/mL) | MIC (Micrococcus flavus [22]): 252 µM (≈ 80 µg/mL) | MFC99.5 (Aspergillus ochraceus [23]): 12.6 ×10⁻² umol/ml | MIC (Pseudomonas aeruginosa [24]): 252 µM (≈ 80 µg/mL) | MIC (Aspergillus fumigatus [25]): 15.8 µM (≈ 5.01 µg/mL) | MBC99.5 (Escherichia coli [26]): 50.4 ×10⁻² umol/ml | MFC99.5 (Trichoderma viride [27]): 25.2 ×10⁻² umol/ml | MIC (Candida albicans [28]): 252 µM (≈ 80 µg/mL) | MIC (Aspergillus versicolor [29]): 15.8 µM (≈ 5.01 µg/mL) | MFC99.5 (Talaromyces funiculosus [30]): 12.6 ×10⁻² umol/ml | MIC (Bacillus cereus [31]): 126 µM (≈ 40 µg/mL) | MFC99.5 (Candida albicans [32]): 50.4 ×10⁻² umol/ml
